Data from publication PMC6057649, “Development of NanoLuc-PEST expressing Leishmania mexicana as a new drug discovery tool for axenic- and intramacrophage-based assays” (PLoS Neglected Tropical Diseases, 2018).

System: NanoLuc-PEST expressing L. mexicana axenic amastigotes
Test: microbe, parasite or virus in culture
Assay type: cell-based
Conditions: for Relative Bioluminescence (%) / viability at 2 µM / viability at 10 µM: 72 hours, relative to DMSO only control, n = 4; for EC50: hit compounds from the axenic amastigote screen, S3 Table, read-out: EC50, Axenic Amastigotes; for viability at 2 µM / viability at 10 µM: Leishmania mexicana, read-out: Relative Bioluminescence (%)

SMILES | Relative Bioluminescence (%) (2 µM compound) | Relative Bioluminescence (%) (10 µM compound) | EC50 | viability at 2 µM (2 µM compound) | viability at 10 µM (10 µM compound)
CNc1nnc(Sc2cnn(-c3ccccc3)c(=O)c2Cl)s1 [MMV688763] | -1.63% | -0.71% | 380 nM |  | 
CC(c1cc(Cl)cc(Cl)c1)N(C)c1ncc2c(N)nc(N)nc2n1 (stereo not shown) [MMV689437] | 37.21% | 1.17% |  |  | 
CC(Oc1ccccc1)C(=O)Nc1nc(-c2ccccn2)cs1 (stereo not shown) [MMV676411] | 48.75% | -0.81% |  |  | 
CC(C)(C)C(=O)N(CCCCCCN1C[C@H](O)[C@@H](O)[C@H](O)[C@H]1CO)C1CCCCCC1 [MMV688543] | 65.10% | 39.32% |  |  | 
COc1ccc(CN2CCOc3ccc(C(C)(O)CN(C)C)cc3C2)cc1C (stereo not shown) [MMV008439] | 83.20% | 126.81% |  |  | 
O=C(Nc1ccc(N2CCNCC2)cc1)c1ccn2ncc(-c3cccc(Cl)c3)c2n1 [MMV022478] | 88.45% | 5.54% |  |  | 
c1ccc(Oc2ccc(-c3cc(N4CCNCC4)[nH]n3)cc2)cc1 [MMV687706] | 85.99% | 75.35% |  |  | 
Cc1ccc(S(=O)(=O)n2cc(-c3ccnc(N)c3)c3cc(Br)cnc32)cc1 [MMV024114] | 103.63% | 69.99% |  |  | 
Cc1cc(Cl)ccc1NC(=O)CCc1ccc(S(=O)(=O)NCC(C)C)cc1 [MMV161996] | 75.91% | 98.90% |  |  | 
Cc1cc(OCC(=O)NCc2ccccc2)c2cc(Br)ccc2n1 [MMV687747] | 76.47% | 30.38% |  |  | 
CC1(C)OB(O)c2ccc(C3=NOC(c4cc(Cl)c(F)c(Cl)c4)(C(F)(F)F)C3)cc21 (stereo not shown) [MMV687775] | 54.77% | 7.40% |  |  | 
CCCCOC(=O)Nc1cc2[nH]c(C3CCCCC3)nc2cc1N1CCCC1 [MMV687730] | 85.81% | 52.52% |  |  | 
COc1ccc(-c2cnc3cnc(-c4cccc(OC(C)C)c4)cn23)cc1 [MMV688270] | 58.63% | 51.88% |  |  | 
Cc1nc(-c2cccc(NCc3ccccc3)c2)[nH]c1C [MMV023227] | 80.48% | 64.23% |  |  | 
Cc1c[nH]c(CCNC(=O)c2cc(-c3ccc(Cl)cc3)cs2)n1 [MMV676350] | 84.72% | 104.94% |  |  | 
CC(C)(C)c1cc(C(=O)Nc2cccnc2)cc(C(=O)Nc2cccnc2)c1 [MMV020982] | 109.38% | 93.07% |  |  | 
O=C(Nc1ccc(C(F)(F)F)c(C(F)(F)F)c1)c1cc(Cl)ccc1O [MMV687807] | 0.88% | 0.53% | 250 nM |  | 
CC[C@@H]([C@H](C)O)n1ncn(-c2ccc(N3CCN(c4ccc(OC[C@@H]5CO[C@@](Cn6cncn6)(c6ccc(F)cc6F)C5)cc4)CC3)cc2)c1=O [MMV688774, Posaconazole, reference compound] |  |  |  | 31.3% | -1.25%
c1ccc(Oc2ccc(-c3cc(CN4CCOCC4)[nH]n3)cc2)cc1 [MMV676161] | 108.65% | 116.07% |  |  | 
c1ccc(-c2nc(NC3CCCCC3)cc(C3CC3)n2)nc1 [MMV021013] | 11.73% | 1.47% |  |  | 

SMILES | Relative Bioluminescence (%) (2 µM compound) | Relative Bioluminescence (%) (10 µM compound) | EC50 | viability at 2 µM (2 µM compound) | viability at 10 µM (10 µM compound)
Cc1ccc(-c2cc(C(=O)Nc3cccnc3)c3cc(Br)ccc3n2)cc1 [MMV016838] | 44.83% | 13.69% |  |  | 
C[C@H](C(N)=O)N1CCCC[C@H]1c1ccc(OCc2cccc(F)c2)cc1 [MMV676269] | 85.78% | 76.17% |  |  | 
O=C(Nc1cccnc1)c1c(O)c2cccc3c2n(c1=O)CC3 [MMV676395] | 63.89% | 0.76% |  |  | 
Cc1ccc2cc(C3NC(=O)c4ccccc4N3)c(Cl)nc2c1 (stereo not shown) [MMV019807] | 69.92% | 111.93% |  |  | 
Cc1ccc2oc(-c3cc(NC(=O)Cc4ccccc4)ccc3Cl)nc2c1 [MMV676509] | 92.05% | 59.65% |  |  | 
CC(=O)NC[C@H]1CN(c2ccc(N3CCSCC3)c(F)c2)C(=O)O1 [MMV688756, Sutezolid, reference compound] |  |  |  | 88.9% | 64.5%
O=C(NCCN1CCCC1)c1cc(NCCN2CCOCC2)nc2ccc(Cl)cc12 [MMV634140] | 112.61% | 73.96% |  |  | 
CCC(C)NC(=O)c1ccc(NC(=O)C2(c3ccccc3)CCCC2)cc1 (stereo not shown) [MMV146306] | 97.77% | 40.43% |  |  | 
Cc1ccc2nc(C)c(-c3ccn(Cc4ccccc4)n3)n2c1 [MMV688939] | 75.51% | 51.85% |  |  | 
CC(C)(C)c1cc(C(=O)N2CCN(c3nccnc3C#N)CC2)n(Cc2ccccc2)n1 [MMV023949] | 80.37% | 52.45% |  |  | 
CCNC(=O)C(C)Nc1nc(-c2cccnc2)nc2sc(C)c(C)c12 (stereo not shown) [MMV1037162] | 83.26% | 85.96% |  |  | 
Cc1cc(NC(=O)c2ccc(S(=O)(=O)N(Cc3ccccc3)C(C)C)cc2)no1 [MMV007133] | 102.77% | 71.20% |  |  | 
COc1cccn2c(C(=O)N3CCCCC3)c(C(F)(F)F)nc12 [MMV1110498] | 66.34% | 77.35% |  |  | 
Nc1nc(N)c2c3c(sc2n1)CN(Cc1ccccc1)CC3 [MMV688345] | 105.25% | 69.94% |  |  | 
O=C1[C@@H](Oc2ccccc2)[C@@H](c2ccc(Cl)cc2)N1CCn1cnc2c(NCc3ccccc3)ncnc21 [MMV688352] | 66.17% | 8.52% |  |  | 
CO[C@@H](C(=O)N1Cc2[nH]nc(NC(=O)c3ccc(N4CCN(C)CC4)cc3)c2C1)c1ccccc1 [MMV676600] | 110.66% | 114.36% |  |  | 
Cc1cc(C)c2cc(C(=O)NC3CCCCCCC3)[nH]c2c1 [MMV687146] | 98.04% | 84.77% |  |  | 
O=C(N[C@H](Cc1ccccc1)C(=O)Nc1ccccc1N1CCOCC1)c1cccs1 [MMV688845] | 64.60% | 67.13% |  |  | 
CNC(=O)c1cc(S(=O)(=O)N2CCN(c3ccccn3)CC2)cs1 [MMV020136] | 108.03% | 122.06% |  |  | 
COc1ccc(S(=O)(=O)Nc2ccc(CN3CCN(C(=O)c4cccc(C#N)c4)CC3)cc2)cc1 [MMV689029] | 67.41% | 57.59% |  |  | 

SMILES | Relative Bioluminescence (%) (2 µM compound) | Relative Bioluminescence (%) (10 µM compound) | EC50 | viability at 2 µM (2 µM compound) | viability at 10 µM (10 µM compound)
CCCCc1ccc(NC(=O)Nc2ccc(O[C@H]3CCCC[C@@H]3N(C)c3ccccc3)c(F)c2)cc1 [MMV676063] | 99.42% | 66.65% |  |  | 
CC(C)NCC(=O)Nc1cccc(C(=O)Nc2cccc(C(F)(F)F)c2)c1 [MMV020165] | 63.67% | 61.89% |  |  | 
Cc1nn(C(=O)Nc2cccc(C(F)(F)F)c2)c(C)c1Sc1ncccn1 [MMV688552] | 71.00% | 47.85% |  |  | 
O=C(C1CCN(c2nnnn2-c2ccccc2)CC1)N1CCc2ccccc2C1 [MMV009135] | 83.57% | 73.86% |  |  | 
CC(C)(C(=O)Nc1ccc(F)cc1)n1cc(-c2ccccc2F)cn1 [MMV687239] | 106.04% | 118.80% |  |  | 
CC1=Nc2ccc(Cl)cc2C(O)(c2ccc(C)cc2)N1CCN1CCCCC1 (stereo not shown) [MMV688279] | 70.45% | 75.33% |  |  | 
Cc1nc(-c2ccccn2)nc(N2CCC(Cc3ccccc3)C2)c1Cl (stereo not shown) [MMV659004] | 73.83% | -1.44% |  |  | 
O=C(NCc1nnc2n1CCCCC2)c1ccc(-c2ccc(F)cc2)o1 [MMV688796] | 88.65% | 91.91% |  |  | 
N=C(N)c1ccc(-c2cc(-c3ccccc3)on2)cc1 [MMV688514] | 40.80% | 34.58% |  |  | 
CCCn1c(NC(=O)c2ccc3ccccc3n2)nc2ccccc21 [MMV1030799] | 37.62% | -5.56% |  |  | 
Cc1nn(C)cc1C(C)Nc1nncc(-c2ccc(C(F)(F)F)cc2)n1 (stereo not shown) [MMV019993] | 96.83% | 70.73% |  |  | 
CC(=O)N1CCN(c2ccc(Oc3ccc(Cl)cc3O)cc2)CC1 [MMV688330] | 97.96% | 79.07% |  |  | 
c1cncc(NCc2ccc(-c3cc4ccncc4cc3OC3CCNCC3)s2)c1 [MMV023969] | 76.39% | 74.16% |  |  | 
CO[C@@H]1CN(c2ccc(C#CC3(O)CN4CCC3CC4)c(Cc3ccccc3)n2)C[C@H]1O (stereo partly shown) [MMV688415] | 63.04% | 31.88% |  |  | 
CC(C)(CN)c1nc(-c2ccc(Cl)c(O)c2)c(-c2ccnc(N)n2)[nH]1 [MMV030734] | 80.21% | 87.08% |  |  | 
CCN(CC)S(=O)(=O)c1ccc(Cl)c(C(=O)Nc2ccc3nc(C)sc3c2)c1 [MMV019721] | 65.53% | 69.43% |  |  | 
C[C@H](c1ccc2c(c1)CCCC2)N(C)c1ncc2c(N)nc(N)nc2n1 [MMV690103] | 59.86% | 0.48% |  |  | 
CC(C)(C)n1nc(Cc2ccc(F)c(Cl)c2)c2c(N)ncnc21 [MMV688852] | 73.28% | 34.77% |  |  | 
